Calls of active or inactive are those of the source. No cut-off for these calls is given here.
Tests used:
[1] = system: Rattus norvegicus; test: Antiinflammatory activity in Wistar rat mycobacterial adjuvant-induced arthritis model assessed as inhibition of swelling at 30 mg/kg/day, po measured on day 14 relative to control; format: functional; details: 336 h
[2] = system: Rattus norvegicus; test: Antiinflammatory activity in Wistar rat mycobacterial adjuvant-induced arthritis model assessed as suppression of secondary lesions at 30 mg/kg/day, po measured on day 14; format: functional, organism-based
[3] = system: Rattus norvegicus; test: Antiinflammatory activity in Wistar rat mycobacterial adjuvant-induced arthritis model assessed as inhibition of swelling at 30 mg/kg/day, po measured on day 3 relative to control; format: functional; details: 72 h
[4] = system: Rattus norvegicus; test: Toxicity in Wistar rat mycobacterial adjuvant-induced arthritis model assessed as increase in body weight at 30 mg/kg/day, po after 14 days (reference value: 19 g); format: organism-based; parameters: route oral; details: in vivo, 336 h

| SMILES | inhibition in vivo at 30 mg/kg/day [1] | Activity [2] | inhibition in vivo at 30 mg/kg/day [3] | Activity [4] |
| --- | --- | --- | --- | --- |
| COc1ccc2cc([C@H](C)C(=O)O)ccc2c1 [NAPROXEN] | 65% | – | – | – |
| O=C(O)c1ccc(=O)n([C@@H]2O[C@H](CO)[C@@H](O)[C@H]2O)c1 | 37% | inactive | 21% | 22 g |
